Data: US10501451B2, “Selective NR2B antagonists” (BRISTOL-MYERS SQUIBB COMPANY, priority 2015, dated 2019)
Like-named read-outs stand apart in the source and are kept apart here.

Key:
[1] = biological target: brain-resident NR2B-subtype receptors (Mus musculus (Mouse), UniProt P35438+Q01097); test: Ex vivo occupancy assay; type: in vivo; settings: iv, mouse
Experimental: (§1) Ex Vivo Occupancy Assay. […] 7-9 weeks old male CD-1 mice were dosed intravenously in a vehicle consisting of 10% dimethylacetamide, 40% PEG-400, 30% hydroxypropyl betacyclodextrin, and 30% water with experimental compounds and the forebrains were harvested 15 minutes post-dosing by decapitation. The brain samples were immediately snap-frozen and stored at −80° C. On the following day, the dosed brain samples were thawed on ice for 15-20 minutes followed by homogenization using Polytron for 10 seconds in cold homogenization buffer composed of 50 mM KH2PO4 (pH adjusted to 7.4 with KOH), 1 mM EDTA, 0.005% Triton X 100 and protease inhibitor cocktail (Sigma Aldrich). The crude homogenates were further homogenized using a Dounce homogenizer and the homogenized membrane aliquots from all animals were flash-frozen and stored at −80° C. until further use. The whole homogenization process was performed on ice. For determining occupancy, the membrane homogenates were first thawed on ice and then needle-homogenized using a 25 gauge needle. The homogenized membrane (6.4 mg/ml) was added to a 96-well plate followed by addition of ^3H Ro 25-6981 (6 nM). The reaction mixture was incubated for 5 minutes on a shaker at 4° C. and then harvested onto GF/B filter plates (treated with 0.5% PEI for 1 hr at room temperature). The filter plates were dried at 50° C. for 20 mins, incubated with microscint 20 for 10 minutes and read on TopCount (Perkin Elmer). Each dose or compound group consisted of 4-5 animals. The control group of animals was dosed with vehicle alone. Membrane from each animal was added in triplicates to the assay plate. Non-specific binding was determined using 10 μM Ro 25-6981 added to the wells containing membrane homogenates from vehicle-dosed animals. Specific counts/minute was converted to % occupancy at each dose of a compound for each animal using the following equation: […]
Drug levels were determined by mass spectroscopy in the usual manner. Drug levels in the blood plasma were 572 nM in at this dose, and drug levels in the homogenized brain tissue were 863 nM.

hERG channels = hERG channels (Homo sapiens (Human), UniProt Q12809); test: hERG electrophysiology assay (patch clamp); type: cell-based; settings: HEK 293 cells stably expressing hERG channels, tail current
Experimental: hERG Electrophysiology Assay. The experimental compounds were assessed for hERG activity on HEK 293 cells stably expressing hERG channels using patch clamp technique. Coverslips plated with hERG expressing cells were placed in the experimental chamber and were perfused with a solution composed of (in mM): 140 NaCl, 4 KCl, 1.8 CaCl2, 1 MgCl2, 10 Glucose, 10 HEPES (pH 7.4, NaOH) at room temperature. Borosilicate patch pipettes had tip resistances of 2-4 Mohms when filled with an internal solution containing: 130 KCl, 1 MgCl2, 1 CaCl2, 10 EGTA, 10 HEPES, 5 ATP-K2 (pH 7.2, KOH). The cells were clamped at −80 mV in whole cell configuration using an Axopatch 200B (Axon instruments, Union City, Calif.) patch clamp amplifier controlled by pClamp (Axon instruments) software. […] First, tail currents were recorded in presence of extracellular solution alone (control) and subsequently, in extracellular solution containing increasing compound concentrations. […] The percentage inhibition at each concentration was calculated as reduction in peak tail current with respect to the peak tail current recorded in the presence of control solution. […]

[2] = Drug levels in blood plasma and homogenized brain tissue by mass spectroscopy; type: in vivo; settings: iv, mouse; for concentration at 15 min: male, 3 mg/Kg i.v., occupancy study
Experimental: as §1, with “animals.” for “animals. Specific counts/minute was converted to % occupancy at each dose of a compound for each animal using the following equation:”
Drug levels were determined by mass spectroscopy in the usual manner. […]
Mouse Forced Swim Test (mFST). […] The duration of immobility was evaluated during the total 6 min of the test and expressed as duration (sec) of immobility. […]

Sequence of brain-resident NR2B-subtype receptors (Q01097 27-1482, other chains not shown): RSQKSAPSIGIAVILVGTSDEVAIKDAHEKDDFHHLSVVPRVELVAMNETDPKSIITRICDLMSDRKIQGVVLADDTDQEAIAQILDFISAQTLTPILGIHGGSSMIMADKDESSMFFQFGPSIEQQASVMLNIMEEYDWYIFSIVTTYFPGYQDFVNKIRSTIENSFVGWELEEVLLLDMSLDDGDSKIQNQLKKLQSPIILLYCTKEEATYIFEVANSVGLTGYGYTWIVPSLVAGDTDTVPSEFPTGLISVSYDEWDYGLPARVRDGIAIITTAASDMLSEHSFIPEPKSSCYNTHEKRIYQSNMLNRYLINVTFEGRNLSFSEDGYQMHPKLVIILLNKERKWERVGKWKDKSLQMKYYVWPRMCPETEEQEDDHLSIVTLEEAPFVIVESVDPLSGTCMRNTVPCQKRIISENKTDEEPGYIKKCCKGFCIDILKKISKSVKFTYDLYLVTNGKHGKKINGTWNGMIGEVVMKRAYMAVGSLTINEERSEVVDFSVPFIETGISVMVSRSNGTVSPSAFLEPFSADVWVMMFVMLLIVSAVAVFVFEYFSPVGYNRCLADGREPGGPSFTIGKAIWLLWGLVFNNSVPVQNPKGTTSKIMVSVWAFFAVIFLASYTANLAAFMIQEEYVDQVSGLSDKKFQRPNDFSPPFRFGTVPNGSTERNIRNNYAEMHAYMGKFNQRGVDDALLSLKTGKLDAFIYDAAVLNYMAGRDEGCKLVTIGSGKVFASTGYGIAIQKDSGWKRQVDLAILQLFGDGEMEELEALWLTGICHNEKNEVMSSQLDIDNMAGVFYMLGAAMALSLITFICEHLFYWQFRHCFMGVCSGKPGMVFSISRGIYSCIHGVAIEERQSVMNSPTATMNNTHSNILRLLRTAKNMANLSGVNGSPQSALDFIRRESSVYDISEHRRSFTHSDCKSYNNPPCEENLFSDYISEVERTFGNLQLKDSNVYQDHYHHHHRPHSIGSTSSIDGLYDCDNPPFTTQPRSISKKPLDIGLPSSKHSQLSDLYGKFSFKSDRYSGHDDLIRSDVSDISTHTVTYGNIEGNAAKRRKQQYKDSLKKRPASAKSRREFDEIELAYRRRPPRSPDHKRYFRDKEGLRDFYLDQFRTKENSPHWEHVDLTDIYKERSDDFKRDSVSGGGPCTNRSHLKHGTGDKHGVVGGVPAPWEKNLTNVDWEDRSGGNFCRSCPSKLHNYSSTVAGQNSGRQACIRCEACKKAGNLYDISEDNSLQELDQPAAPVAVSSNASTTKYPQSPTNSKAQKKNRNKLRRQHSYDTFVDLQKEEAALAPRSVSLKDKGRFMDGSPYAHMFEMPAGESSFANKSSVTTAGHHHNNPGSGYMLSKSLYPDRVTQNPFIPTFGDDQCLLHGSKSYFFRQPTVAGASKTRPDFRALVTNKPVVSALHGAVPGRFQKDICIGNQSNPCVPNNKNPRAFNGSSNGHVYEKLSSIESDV
Sequence of hERG channels (Q12809 whole entry, the tested form may be a part): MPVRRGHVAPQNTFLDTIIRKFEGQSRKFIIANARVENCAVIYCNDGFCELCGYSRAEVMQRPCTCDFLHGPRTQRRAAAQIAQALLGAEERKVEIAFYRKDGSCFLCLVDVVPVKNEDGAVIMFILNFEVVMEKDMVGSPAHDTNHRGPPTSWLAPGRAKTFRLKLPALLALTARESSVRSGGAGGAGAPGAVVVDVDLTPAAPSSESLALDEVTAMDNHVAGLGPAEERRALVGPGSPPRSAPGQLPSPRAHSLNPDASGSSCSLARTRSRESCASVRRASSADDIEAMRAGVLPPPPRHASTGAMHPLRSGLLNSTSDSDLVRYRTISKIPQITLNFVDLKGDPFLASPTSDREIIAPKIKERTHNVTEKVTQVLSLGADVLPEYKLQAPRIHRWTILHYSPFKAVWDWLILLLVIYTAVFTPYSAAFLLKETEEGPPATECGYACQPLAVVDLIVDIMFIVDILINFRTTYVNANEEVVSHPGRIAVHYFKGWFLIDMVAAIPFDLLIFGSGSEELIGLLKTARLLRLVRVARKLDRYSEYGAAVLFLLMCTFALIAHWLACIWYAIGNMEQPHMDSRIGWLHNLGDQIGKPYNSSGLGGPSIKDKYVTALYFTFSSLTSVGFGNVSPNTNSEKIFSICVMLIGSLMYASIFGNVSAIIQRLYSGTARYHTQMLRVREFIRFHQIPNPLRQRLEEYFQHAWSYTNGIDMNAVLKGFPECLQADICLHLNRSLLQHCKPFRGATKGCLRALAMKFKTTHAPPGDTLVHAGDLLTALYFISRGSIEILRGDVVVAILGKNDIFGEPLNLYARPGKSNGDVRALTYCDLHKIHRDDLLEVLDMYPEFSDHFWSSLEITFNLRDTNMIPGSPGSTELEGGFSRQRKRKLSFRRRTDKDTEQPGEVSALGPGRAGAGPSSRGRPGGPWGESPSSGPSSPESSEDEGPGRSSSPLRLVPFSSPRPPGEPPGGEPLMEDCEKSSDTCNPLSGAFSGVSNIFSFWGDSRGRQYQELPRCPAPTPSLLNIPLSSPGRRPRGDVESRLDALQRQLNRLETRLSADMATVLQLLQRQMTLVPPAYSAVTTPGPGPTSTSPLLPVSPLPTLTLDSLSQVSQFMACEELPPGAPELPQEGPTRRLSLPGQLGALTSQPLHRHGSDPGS

For `Cc1ccc(CN2OCC(N3CCN(c4ccc(O)cn4)CC3)C2=O)cc1` (single isomer, unassigned) [Example 10, P-1, 4-(4-(5-hydroxypyridin-2-yl)piperazin-1-yl)-2-(4-methylbenzyl)isoxazolidin-3-one], the receptor occupancy at 1 mg/kg ([1]; 1 mg/Kg i.v., forced swim test animals) was 69%, the receptor occupancy at 3 mg/kg ([1]; 3 mg/Kg i.v., forebrain harvested 15 minutes post-dosing) was 94% and the IC50 (hERG channels) was 30 µM. For the same compound, the concentration at 15 min ([2]; CD-1, brain, read-out: drug levels in the homogenized brain tissue) was 863 nM, the concentration at 15 min ([2]; CD-1, plasma, read-out: Drug levels in the blood plasma) was 572 nM and the concentration at 21 min ([2]; plasma, 1 mg/Kg i.v., at end of forced swim test) was 207 nM.
